Experimental findings from patent US20090163586A1, “Bis-(Sulfonylamino) Derivatives in Therapy 205” (AstraZeneca AB, priority 2007, published 2009) are described below.

The assay has as its target T1, human mPGES-1 (Homo sapiens, UniProt O14684).
T1 sequence (O14684 1-152): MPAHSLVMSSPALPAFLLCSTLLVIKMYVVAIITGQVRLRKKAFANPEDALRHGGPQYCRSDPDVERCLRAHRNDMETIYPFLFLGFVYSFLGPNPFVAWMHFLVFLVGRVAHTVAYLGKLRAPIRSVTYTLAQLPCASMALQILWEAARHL
The assay is described as follows: Microsomal prostaglandin E synthase biochemical assay. As to conditions: microsome preparation containing human mPGES-1; PGH2 10.8 μM, GSH 2.5 mM, pH 6.8; PGE2 by HTRF; average of at least n=2. In outline: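 Human mPGES-1 microsomes at 2 μg/mL were pre-incubated 15 min with compound (60 μM to 0.002 μM) in 50 mM potassium phosphate pH 6.8 with 2.5 mM GSH. The reaction was started with 10.8 μM PGH2 and stopped after 1 minute with acidic ferric chloride/citrate. PGE2 was quantified by HTRF; IC50 is the mean of at least 2 runs.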
A general note: TR-FRET usually uses a lanthanide donor and a delayed reading to cut background.

Take `NS(=O)(=O)c1ccccc1NS(=O)(=O)c1ccc(Oc2ncc(C(F)(F)F)cc2Cl)cc1` [Example 125, 2-[[4-[3-Chloro-5-(trifluoromethyl)pyridin-2-yl]oxyphenyl]sulfonylamino]benzenesulfonamide]: the midpoint of inhibition, the IC50, lay at 7.2 µM.

In turn, `NS(=O)(=O)c1ccccc1NS(=O)(=O)c1ccc2c(c1)CCCC2` [Example 126] gave an IC50 of 1.2 µM. This IC50 is about 6-fold lower than that of the compound before.

For the compound `NS(=O)(=O)c1ccccc1NS(=O)(=O)c1ccc(OCc2ccccc2)cc1` [Example 127, 4-Phenylmethoxy-N-(2-sulfamoylphenyl)benzenesulfonamide], the IC50 was 5.1 µM.

`NS(=O)(=O)c1ccccc1NS(=O)(=O)c1ccc(C2CCCCC2)cc1` [Example 128, 2-[(4-Cyclohexylphenyl)sulfonylamino]benzenesulfonamide]: the half-maximal inhibitory concentration (IC50) stood at 1.7 µM. This IC50 is about 3-fold lower than that of the compound before.

`NS(=O)(=O)c1ccccc1NS(=O)(=O)c1cccc(-c2ccccc2)c1` [Example 129, 3-Phenyl-N-(2-sulfamoylphenyl)benzenesulfonamide] yielded an IC50 of 2.5 µM.

The compound `Cn1nc(-c2ccc(S(=O)(=O)Nc3ccccc3S(N)(=O)=O)s2)cc1C(F)(F)F` [Example 130, 5-(1-Methyl-5-trifluoromethyl-1H-pyrazol-3-yl)-thiophene-2-sulfonic acid (2-sulfamoyl-phenyl)-amide] yielded a half-inhibitory concentration (IC50) of 5.2 µM.

In turn, `NS(=O)(=O)c1ccccc1NS(=O)(=O)c1ccc(C(F)(F)F)cc1` [Example 131, N-(2-Sulfamoylphenyl)-4-(trifluoromethyl)benzenesulfonamide] had a 50% inhibitory concentration (IC50) of 6.6 µM.

As to `NS(=O)(=O)c1ccccc1NS(=O)(=O)c1cccc(-c2cc(Cl)ccc2Cl)c1` [Example 132, 2-[[3-(2,5-Dichlorophenyl)phenyl]sulfonylamino]benzenesulfonamide], the 50% inhibitory concentration (IC50) was determined as 4.5 µM.

The compound `NS(=O)(=O)c1ccccc1NS(=O)(=O)c1cccc(-c2cccc3c2oc2ccccc23)c1` [Example 133, 3-Dibenzofuran-4-yl-N-(2-sulfamoylphenyl)benzenesulfonamide] gave an IC50 of 2.2 µM.

`NS(=O)(=O)c1ccccc1NS(=O)(=O)c1cccc(-c2ccc(C(F)(F)F)cc2)c1` [Example 134, 2-[[3-[4-(Trifluoromethyl)phenyl]phenyl]sulfonylamino]benzenesulfonamide] had an IC50 of 3.7 µM.

`COc1cccc(-c2cccc(S(=O)(=O)Nc3ccccc3S(N)(=O)=O)c2)c1` [Example 135, 3-(3-Methoxyphenyl)-N-(2-sulfamoylphenyl)benzenesulfonamide] displayed an IC50 of 8.3 µM.

`NS(=O)(=O)c1ccccc1NS(=O)(=O)c1cccc(-c2cc3ccccc3o2)c1` [Example 136, 3-Benzofuran-2-yl-N-(2-sulfamoylphenyl)benzenesulfonamide] yielded an IC50 of 3.8 µM.

`NS(=O)(=O)c1ccccc1NS(=O)(=O)c1cccc(-c2ccc3c(c2)CCO3)c1` [Example 137, 2-[[3-(2,3-Dihydrobenzofuran-5-yl)phenyl]sulfonylamino]benzenesulfonamide]: half-maximal inhibition (IC50) was put at 2.1 µM.

In turn, `COc1ccc(-c2cccc(S(=O)(=O)Nc3ccccc3S(N)(=O)=O)c2)cn1` [Example 138, 3-(6-Methoxypyridin-3-yl)-N-(2-sulfamoylphenyl)benzenesulfonamide] returned an IC50 of 0.57 µM.

For `NS(=O)(=O)c1ccccc1NS(=O)(=O)c1cccc(-c2ccc(Cl)cc2Cl)c1` [Example 139, 2-[[3-(2,4-Dichlorophenyl)phenyl]sulfonylamino]benzenesulfonamide], the IC50 was found to be 1.8 µM.

For the compound `Cn1c(-c2cccc(S(=O)(=O)Nc3ccccc3S(N)(=O)=O)c2)cc2ccccc21` [Example 140, 3-(1-Methylindol-2-yl)-N-(2-sulfamoylphenyl)benzenesulfonamide], half-maximal inhibition (IC50) was put at 2.9 µM.

As for `NS(=O)(=O)c1ccccc1NS(=O)(=O)c1cccc(-c2cccc(C(F)(F)F)c2)c1` [Example 141, 2-[[3-[3-(Trifluoromethyl)phenyl]phenyl]sulfonylamino]benzenesulfonamide], the IC50 stood at 3.1 µM.

As for `NS(=O)(=O)c1ccccc1NS(=O)(=O)c1ccc(-c2cc3ccccc3o2)cc1` [Example 142, 4-Benzofuran-2-yl-N-(2-sulfamoylphenyl)benzenesulfonamide], the 50% inhibitory concentration (IC50) is 4.9 µM.

`NS(=O)(=O)c1ccccc1NS(=O)(=O)c1cccc(-c2ccc(F)cc2F)c1` [Example 143, 2-[[3-(2,4-Difluorophenyl)phenyl]sulfonylamino]benzenesulfonamide] displayed an IC50 of 1.1 µM.

Take `NS(=O)(=O)c1cc(Br)ccc1NS(=O)(=O)c1cccc(-c2ccc(Cl)c(Cl)c2)c1` [Example 144, 5-Bromo-2-[[3-(3,4-dichlorophenyl)phenyl]sulfonylamino]benzenesulfonamide]: the IC50 was determined as 1.1 µM.

Turning to `NS(=O)(=O)c1cc(-c2ccccc2)ccc1NS(=O)(=O)c1cccc(-c2ccc(Cl)c(Cl)c2)c1` [Example 145, 2-[[3-(3,4-Dichlorophenyl)phenyl]sulfonylamino]-5-phenyl-benzenesulfonamide], the IC50 stood at 4.1 µM. This IC50 lies about 3.7-fold higher than the previous one.

Compound `NS(=O)(=O)c1ccccc1NS(=O)(=O)c1cccc(F)c1F` [Example 146, 2,3-Difluoro-N-(2-sulfamoylphenyl)benzenesulfonamide] registered an IC50 of 4.7 µM. This IC50 and that of the compound before are within 1.5-fold of each other.

Turning to `NS(=O)(=O)c1cc(F)ccc1NS(=O)(=O)c1cccc(F)c1F` [Example 147, 2,3-Difluoro-N-(4-fluoro-2-sulfamoyl-phenyl)benzenesulfonamide], the IC50 came to 3.9 µM.

`NS(=O)(=O)c1ccccc1NS(=O)(=O)c1cccc(Cl)c1F` [Example 148, 3-Chloro-2-fluoro-N-(2-sulfamoylphenyl)benzenesulfonamide] gave a half-maximal inhibitory concentration (IC50) of 0.38 µM. Compared with the last compound, the IC50 is about 10-fold lower.

`NS(=O)(=O)c1ccccc1NS(=O)(=O)c1cccc(Cl)c1Cl` [Example 149, 2,3-Dichloro-N-(2-sulfamoylphenyl)benzenesulfonamide] yielded an IC50 of 0.65 µM.

Turning to `Cc1ccc(NS(=O)(=O)c2cccc(-c3ccc(Cl)c(Cl)c3)c2)c(S(N)(=O)=O)c1` [Example 150, 2-[[3-(3,4-Dichlorophenyl)phenyl]sulfonylamino]-5-methyl-benzenesulfonamide], the half-inhibitory concentration (IC50) worked out at 4.2 µM.

Consider `NC(=O)c1ccc(NS(=O)(=O)c2cccc(-c3ccc(Cl)c(Cl)c3)c2)c(S(N)(=O)=O)c1` [Example 151, 4-[[3-(3,4-Dichlorophenyl)phenyl]sulfonylamino]-3-sulfamoyl-benzamide], for which the IC50 was 3.7 µM.

As to `Cc1ccc(NS(=O)(=O)c2cccc(-c3cccc(OC(F)(F)F)c3)c2)c(S(N)(=O)=O)c1` [Example 152, 5-Methyl-2-[[3-[3-(trifluoromethoxy)phenyl]phenyl]sulfonylamino]-benzenesulfonamide], the IC50 turned out to be 3.9 µM.

Regarding `NS(=O)(=O)c1cc(CO)ccc1NS(=O)(=O)c1cccc(Cl)c1Cl` [Example 153, 2-(2,3-Dichloro-benzenesulfonylamino)-5-hydroxymethyl-benzenesulfonamide], the IC50 was 3.2 µM.

As to `Cc1ccc(NS(=O)(=O)c2cccc(Cl)c2Cl)c(S(N)(=O)=O)c1` [Example 154, 2-(2,3-Dichloro-benzenesulfonylamino)-5-methyl-benzenesulfonamide], 9.3 µM corresponded to half-maximal inhibition (IC50).

Regarding `NS(=O)(=O)c1cc(Oc2ccccc2)ccc1NS(=O)(=O)c1cccc(-c2ccc(Cl)c(Cl)c2)c1` [Example 155, 2-[[3-(3,4-Dichlorophenyl)phenyl]sulfonylamino]-5-phenoxy-benzenesulfonamide], the IC50 worked out at 9.8 µM. The IC50 values of the last two compounds are within 1.5-fold of each other.

As for `NS(=O)(=O)c1cc(Oc2ccccc2)ccc1NS(=O)(=O)c1cccc(-c2cccc(OC(F)(F)F)c2)c1` [Example 156, 5-Phenoxy-2-[[3-[3-(trifluoromethoxy)phenyl]phenyl]sulfonylamino]-benzenesulfonamide], inhibition was half-maximal at 5.4 µM (IC50).

With `NS(=O)(=O)c1cc(O)ccc1NS(=O)(=O)c1cccc(Cl)c1Cl` [Example 157, 2-(2,3-Dichloro-benzenesulfonylamino)-5-hydroxy-benzenesulfonamide], the IC50 was 1.1 µM.

Turning to `C[C@@](O)(C(=O)Nc1ccc(S(=O)(=O)Nc2ccccc2S(N)(=O)=O)cc1Cl)C(F)(F)F` [Example 158, (2R)—N-[2-Chloro-4-[(2-sulfamoylphenyl)sulfamoyl]phenyl]-3,3,3-trifluoro-2-hydroxy-2-methyl-propanamide], the IC50 stood at 8.7 µM.

In the case of `NS(=O)(=O)c1ccccc1NS(=O)(=O)c1ccc(Cl)s1` [Example 159, 5-Chloro-N-(2-sulfamoylphenyl)thiophene-2-sulfonamide], the half-inhibitory concentration (IC50) is 3.5 µM.

In the case of `NS(=O)(=O)c1ccccc1NS(=O)(=O)c1cc(Cl)c(Cl)s1` [Example 160, 4,5-Dichloro-N-(2-sulfamoylphenyl)thiophene-2-sulfonamide], the IC50 was determined as 1.2 µM.

For the compound `NS(=O)(=O)c1ccccc1NS(=O)(=O)c1ccc(Cl)c(Cl)c1` [Example 161, 3,4-Dichloro-N-(2-sulfamoylphenyl)benzenesulfonamide], the half-maximal inhibitory concentration (IC50) came to 1.3 µM.

Compound `COc1cccc(-c2cccc(S(=O)(=O)Nc3ccccc3S(N)(=O)=O)c2)n1` [Example 162, 3-(6-Methoxypyridin-2-yl)-N-(2-sulfamoylphenyl)benzenesulfonamide] displayed a half-maximal inhibitory concentration (IC50) of 5.7 µM.

For the compound `NS(=O)(=O)c1ccccc1NS(=O)(=O)c1ccc(OCc2cnc(Cl)s2)cc1` [Example 163, 2-[[4-[(2-Chlorol,3-thiazol-5-yl)methoxy]phenyl]sulfonylamino]benzenesulfonamide], the IC50 worked out at 0.46 µM.

Consider `COc1ncc(-c2cccc(S(=O)(=O)Nc3ccccc3S(N)(=O)=O)c2)cc1F` [Example 164, 3-(5-Fluoro-6-methoxy-pyridin-3-yl)-N-(2-sulfamoylphenyl)benzenesulfonamide], for which the IC50 was found to be 0.19 µM. Compared with the last compound, the IC50 is about 2.4-fold lower.

By IC50 is commonly meant the point on the concentration scale where inhibition reaches its midpoint.
